Laboratory results published in patent publication US20250002464A1, “NOVEL COMPOUND AND PHARMACEUTICAL COMPOSITION COMPRISING SAME” (SAPIENSBIO INC., priority 2021, published 2025).

Tested on: α-SMA
Test: α-SMA expression inhibitory ability in MRC5 cell line (Western blotting)
Format: cell-based
Conditions: TGF-β1 (10 ng/mL), 72 hours, relative to TGF-β1 only
Description: Subsequently, the inhibitory effect on pulmonary fibrosis of the compounds according to the present invention was overall evaluated. An MRC5 cell line was treated with each compound at 10 μM, and 2 hours later, treated with TGF-β1 (10 ng/mL). After 72 hours, the cells were lysed using RIPA Buffer, and then an α-SMA protein level was measured through Western blotting. The α-SMA expression level when treating the cells with each compound and TGF-β1 compared to the α-SMA expression level when treating the cells only with TGF-β1 without the compound was calculated as the α-SMA expression inhibitory ability of the corresponding compound. The α-SMA expression inhibitory ability of each compound is summarized in Table 2 below (A: inhibitory ability≥70%, B: 50%: inhibitory ability<70%, C: inhibitory ability<50%).

Compound	inhibition at 10 µM [%]
CN1CCN(CC(=O)N2CCN(Cc3ccccc3Cl)c3ccccc32)CC1 [Compound 95, 1-(4-(2-chlorobenzyl)-3,4-dihydroquinoxaline-1(2H)-yl)-2-(4-methylpiperazin-1-yl)ethan-1-one]	50 to 70
CC(C(=O)N1CCN(c2ccccc2)c2ccccc21)N1CCCC1 (stereo not drawn) [Compound 61, 1-(4-phenyl-3,4-dihydroquinoxaline-1(2H)-yl)-2-(pyrrolidin-1-yl)propan-1-one]	< 50
O=C(CCN1CCCCC1)N1CCN(c2ccccc2Cl)c2ccccc21 [Compound 126, 1-(4-(2-chlorophenyl)-3,4-dihydroquinoxaline-1(2H)-yl)-3-(piperidin-1-yl)propan-1-one]	50 to 70
O=C(CN1CCCC1)N1CCN(C(=O)c2ccccc2)c2ccccc21 [Compound 202, 1-(4-benzoyl-3,4-dihydroquinoxaline-1(2H)-yl)-2-(pyrrolidin-1-yl)ethan-1-one]	< 50
CN1CCN(CCC(=O)N2CCN(c3ccccc3)c3cc(F)ccc32)CC1 [Compound 4, 1-(6-fluoro-4-phenyl-3,4-dihydroquinoxaline-1(2H)-yl)-3-(4-methylpiperazin-1-yl)propan-1-one]	50 to 70
CC(C(=O)N1CCN(c2ccccn2)c2ccccc21)N1CCCCC1 (stereo not drawn) [Compound 150]	≥ 70
O=C(CCN1CCCC1)N1CCN(c2ccccn2)c2ccccc21 [Compound 146]	< 50
O=C(CCc1cnc[nH]1)N1CCN(c2ccc(F)cc2)c2cc(F)ccc21 [Compound 46, 1-(6-fluoro-4-(4-fluorophenyl)-3,4-dihydroquinoxaline-1(2H)-yl)-3-(1H-imidazol-5-yl)propan-1-one]	≥ 70
O=C(CCN1CCCCC1)N1CCN(Cc2ccccn2)c2ccccc21 [Compound 115, 3-(piperidin-1-yl)-1-(4-(pyridin-2-ylmethyl)-3,4-dihydroquinoxaline-1(2H)-yl)propan-1-one]	< 50
CC(C(=O)N1CCN(c2ccccn2)c2ccccc21)N1CCCC1 (stereo not drawn) [Compound 149]	< 50
CC(C(=O)N1CCN(Cc2cccc(Cl)c2)c2ccccc21)N1CCCCC1 (stereo not drawn) [Compound 100, 1-(4-(3-chlorobenzyl)-3,4-dihydroquinoxaline-1(2H)-yl)-2-(piperidin-1-yl)propan-1-one]	≥ 70
C[C@@H]1CCCN1CCC(=O)N1CCN(c2ccccc2)c2ccccc21 [Compound 57, (R)-3-(2-methylpyrrolidin-1-yl)-1-(4-phenyl-3,4-dihydroquinoxaline-1(2H)-yl)propan-1-one]	< 50
CC(C(=O)N1CCN(c2ccccc2Cl)c2ccccc21)N1CCCCC1 (stereo not drawn) [Compound 129, 1-(4-(2-chlorophenyl)-3,4-dihydroquinoxaline-1(2H)-yl)-2-(piperidin-1-yl)propan-1-one]	≥ 70
CN1CCN(CCCN2CCN(c3ccc(F)cc3)c3ccccc32)CC1 [Compound 30, 1-(4-fluorophenyl)-4-(3-(4-methylpiperazin-1-yl)propyl)-1,2,3,4-tetrahydroquinoxaline]	≥ 70
CC(C(=O)N1CCN(C2CCCCC2)c2ccccc21)N1CCCCC1 (stereo not drawn) [Compound 191, 1-(4-cyclohexyl-3,4-dihydroquinoxaline-1(2H)-yl)-2-(piperidin-1-yl)propan-1-one]	50 to 70
O=C(CN1CCCCC1)N1CCN(C(=O)c2ccccc2)c2ccccc21 [Compound 203, 1-(4-benzoyl-3,4-dihydroquinoxaline-1(2H)-yl)-2-(piperidin-1-yl)ethan-1-one]	< 50
CC(C)N1CCN(C(=O)CCN2CCN(C)CC2)c2ccccc21 [Compound 179, 1-(4-isopropyl-3,4-dihydroquinoxaline-1(2H)-yl)-3-(4-methylpiperazin-1-yl)propan-1-one]	< 50
CC(C(=O)N1CCN(C(C)C)c2ccccc21)N1CCN(C)CC1 (stereo not drawn) [Compound 182, 1-(4-isopropyl-3,4-dihydroquinoxaline-1(2H)-yl)-2-(4-methylpiperazin-1-yl)propan-1-one]	< 50
